This note sets out measurements from US9062078B2, “Substituted 7-azabicyles and their use as orexin receptor modulators” (priority 2013, dated 2015).

One assay deals with human orexin 1 receptor (Homo sapiens (Human), UniProt O43613). As to the kind of experiment: Human orexin 1 receptor radioligand binding (competitive, [3H]-SB674042, CHO cell preparations).
Another assay has as its target human orexin 2 receptor (Homo sapiens (Human), UniProt O43614). As to the kind of experiment: Human orexin 2 receptor radioligand binding (competitive, [3H]-EMPA, HEK293 cell preparations).
Another assay addresses rat orexin 1 receptor (Rattus norvegicus, UniProt P56718). As to the kind of experiment: Rat orexin 1 receptor radioligand binding (competitive, [3H]-SB674042, HEK293 cell preparations).
Setting [1] is: human orexin 1 receptor, [3H]-SB674042 competition binding, read-out: hOX1 Ki (nm).
Setting [2] is: human orexin 2 receptor, [3H]-EMPA competition binding, read-out: hOX2 Ki (nm).
The mark [3] stands for this setting: rat orexin 1 receptor, [3H]-SB674042 competition binding, read-out: rOX1 Ki (nm).

Like-named read-outs stand apart in the source and are kept apart here.

Sequence of human orexin 2 receptor (O43614 whole entry): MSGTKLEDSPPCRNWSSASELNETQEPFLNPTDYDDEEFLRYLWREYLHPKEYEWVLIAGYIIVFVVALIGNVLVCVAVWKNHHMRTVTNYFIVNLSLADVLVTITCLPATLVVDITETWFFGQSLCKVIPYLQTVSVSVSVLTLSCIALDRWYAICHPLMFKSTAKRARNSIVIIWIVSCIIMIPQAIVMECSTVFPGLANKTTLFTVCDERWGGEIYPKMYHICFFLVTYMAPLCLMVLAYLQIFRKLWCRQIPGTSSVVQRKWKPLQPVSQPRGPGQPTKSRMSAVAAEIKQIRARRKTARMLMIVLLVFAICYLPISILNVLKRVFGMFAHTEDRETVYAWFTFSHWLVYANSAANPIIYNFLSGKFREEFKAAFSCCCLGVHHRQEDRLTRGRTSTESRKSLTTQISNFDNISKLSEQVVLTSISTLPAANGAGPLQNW
Sequence of human orexin 1 receptor (O43613 whole entry): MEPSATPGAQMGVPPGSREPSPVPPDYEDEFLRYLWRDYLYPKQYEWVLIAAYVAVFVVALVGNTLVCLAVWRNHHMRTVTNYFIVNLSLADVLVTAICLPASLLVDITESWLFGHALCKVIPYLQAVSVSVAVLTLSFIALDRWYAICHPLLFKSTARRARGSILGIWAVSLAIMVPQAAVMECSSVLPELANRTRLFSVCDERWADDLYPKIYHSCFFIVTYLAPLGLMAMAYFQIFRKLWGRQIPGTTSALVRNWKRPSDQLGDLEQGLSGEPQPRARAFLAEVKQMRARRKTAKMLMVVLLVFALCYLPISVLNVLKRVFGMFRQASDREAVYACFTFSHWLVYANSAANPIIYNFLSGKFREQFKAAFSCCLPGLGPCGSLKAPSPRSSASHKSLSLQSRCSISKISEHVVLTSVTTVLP

Regarding `COc1ccc2cccnc2c1C(=O)N1C2CCC1C(COc1ccccn1)C2` (racemic) [Example 88, (±)-(7-methoxyquinolin-8-yl)(2-((pyridin-2-yloxy)methyl)-7-azabicyclo[2.2.1]heptan-7-yl)methanone], the results for the Ki on human orexin 1 receptor (setting [1]), on human orexin 2 receptor (setting [2]) and at rat orexin 1 receptor (setting [3]) were 49 nM, 690 nM and 47 nM, respectively.

`CCOc1ccc2ccccc2c1C(=O)N1C2CCC1C(COc1ccccn1)C2` (racemic) [Example 89, (±)-(2-ethoxynaphthalen-1-yl)(2-((pyridin-2-yloxy)methyl)-7-azabicyclo[2.2.1]heptan-7-yl)methanone]: the results for the Ki at human orexin 1 receptor (setting [1]), on human orexin 2 receptor (setting [2]) and at rat orexin 1 receptor (setting [3]) were 10 nM, 38 nM and 11 nM, respectively.

`Cc1nc(C(=O)N2C3CCC2C(COc2ccccn2)C3)c(-c2ccccc2)s1` (racemic) [Example 92, (±)-(2-methyl-5-phenylthiazol-4-yl)(2-((pyridin-2-yloxy)methyl)-7-azabicyclo[2.2.1]heptan-7-yl)methanone]: the results for the Ki on human orexin 1 receptor (hOX1 Ki (nm)), on human orexin 2 receptor (setting [2]) and on rat orexin 1 receptor (rOX1 Ki (nm)) were 11 nM, 218 nM and 20 nM, respectively.

Turning to `Cc1ccc(-c2ncco2)c(C(=O)N2C3CCC2C(COc2ccccn2)C3)n1` (racemic) [Example 93, (±)-(6-methyl-3-(oxazol-2-yl)pyridin-2-yl)(2-((pyridin-2-yloxy)methyl)-7-azabicyclo[2.2.1]heptan-7-yl)methanone], the values for the Ki on human orexin 1 receptor (setting [1]), on human orexin 2 receptor (hOX2 Ki (nm)) and on rat orexin 1 receptor (setting [3]) were 73 nM, 836 nM and 40 nM, respectively.

For the compound `Cc1cc(-c2ccc(C)nc2C(=O)N2C3CCC2C(COc2ccccn2)C3)on1` (racemic) [Example 94, (±)-(6-methyl-3-(3-methylisoxazol-5-yl)pyridin-2-yl)(2-((pyridin-2-yloxy)methyl)-7-azabicyclo[2.2.1]heptan-7-yl)methanone], the figures for the inhibition constant (Ki) on human orexin 1 receptor (setting [1]), at human orexin 2 receptor (setting [2]) and on rat orexin 1 receptor (setting [3]) were 200 nM, 2100 nM and 170 nM, respectively.

For the compound `Cc1cnn(-c2ccc(C)nc2C(=O)N2C3CCC2C(COc2ccccn2)C3)c1` (racemic) [Example 96, (±)-(6-methyl-3-(4-methyl-1H-pyrazol-1-yl)pyridin-2-yl)(2-((pyridin-2-yloxy)methyl)-7-azabicyclo[2.2.1]heptan-7-yl)methanone], the Ki (usually a dissociation constant, usually derived from enzyme kinetics or from competition with a known ligand) is 76 nM on human orexin 1 receptor (setting [1]), 950 nM at human orexin 2 receptor (setting [2]) and 70 nM at rat orexin 1 receptor (setting [3]).

Consider `Cc1ccc(N2CCCC2)c(C(=O)N2C3CCC2C(COc2ccccn2)C3)n1` (racemic) [Example 97, (±)-(6-methyl-3-(pyrrolidin-1-yl)pyridin-2-yl)(2-((pyridin-2-yloxy)methyl)-7-azabicyclo[2.2.1]heptan-7-yl)methanone], for which the values for the Ki at human orexin 1 receptor (setting [1]), on human orexin 2 receptor (setting [2]) and at rat orexin 1 receptor (setting [3]) were 32 nM, 840 nM and 35 nM, respectively.

In the case of `COc1cccc(-n2nccn2)c1C(=O)N1C2CCC1C(COc1ccc(F)cn1)C2` (racemic) [Example 108, (±)-(2-(((5-fluoropyridin-2-yl)oxy)methyl)-7-azabicyclo[2.2.1]heptan-7-yl)(2-methoxy-6-(2H-1,2,3-triazol-2-yl)phenyl)methanone], the results for the Ki at human orexin 1 receptor (setting [1]), at human orexin 2 receptor (setting [2]) and at rat orexin 1 receptor (setting [3]) were 12 nM, 12 nM and 10 nM, respectively.

As for `O=C(c1cc(F)ccc1-c1ccn[nH]1)N1C2CCC1C(COc1ccc(F)cn1)C2` (racemic) [Example 109, (±)-(5-fluoro-2-(1H-pyrazol-5-yl)phenyl)(2-(((5-fluoropyridin-2-yl)oxy)methyl)-7-azabicyclo[2.2.1]heptan-7-yl)methanone], the Ki amounted to 20 nM on human orexin 1 receptor (hOX1 Ki (nm)), 99 nM at human orexin 2 receptor (hOX2 Ki (nm)) and 29 nM on rat orexin 1 receptor (rOX1 Ki (nm)).

Consider `Cc1cccc(-n2nccn2)c1C(=O)N1C2CCC1C(COc1ccc(F)cn1)C2` (racemic) [Example 110, (±)-(2-(((5-fluoropyridin-2-yl)oxy)methyl)-7-azabicyclo[2.2.1]heptan-7-yl)(2-methyl-6-(2H-1,2,3-triazol-2-yl)phenyl)methanone], for which the figures for the Ki at human orexin 1 receptor (setting [1]), at human orexin 2 receptor (setting [2]) and on rat orexin 1 receptor (setting [3]) were 67 nM, 94 nM and 54 nM, respectively.

As to `COc1ccc(-n2nccn2)c(C(=O)N2C3CCC2C(COc2ccc(F)cn2)C3)c1` (racemic) [Example 114, (±)-(2-(((5-fluoropyridin-2-yl)oxy)methyl)-7-azabicyclo[2.2.1]heptan-7-yl)(5-methoxy-2-(2H-1,2,3-triazol-2-yl)phenyl)methanone], the figures for the Ki on human orexin 1 receptor (hOX1 Ki (nm)), on human orexin 2 receptor (hOX2 Ki (nm)) and at rat orexin 1 receptor (rOX1 Ki (nm)) were 48 nM, 73 nM and 20 nM, respectively.

As for `O=C(c1c(F)cccc1-n1nccn1)N1C2CCC1C(COc1ccc(F)cn1)C2` (racemic) [Example 115, (±)-(2-fluoro-6-(2H-1,2,3-triazol-2-yl)phenyl)(2-(((5-fluoropyridin-2-yl)oxy)methyl)-7-azabicyclo[2.2.1]heptan-7-yl)methanone], the figures for the Ki at human orexin 1 receptor (hOX1 Ki (nm)), at human orexin 2 receptor (hOX2 Ki (nm)) and at rat orexin 1 receptor (rOX1 Ki (nm)) were 78 nM, 108 nM and 57 nM, respectively.

As for `O=C(c1ccc(F)cc1-n1nccn1)N1C2CCC1C(COc1ccc(F)cn1)C2` (racemic) [Example 116, (±)-(4-fluoro-2-(2H-1,2,3-triazol-2-yl)phenyl)(2-(((5-fluoropyridin-2-yl)oxy)methyl)-7-azabicyclo[2.2.1]heptan-7-yl)methanone], the Ki was 250 nM at human orexin 1 receptor (setting [1]), 315 nM at human orexin 2 receptor (setting [2]) and 142 nM on rat orexin 1 receptor (setting [3]).

Regarding `O=C(c1cccc(F)c1-n1nccn1)N1C2CCC1C(COc1ccc(F)cn1)C2` (racemic) [Example 117, (±)-(3-fluoro-2-(2H-1,2,3-triazol-2-yl)phenyl)(2-(((5-fluoropyridin-2-yl)oxy)methyl)-7-azabicyclo[2.2.1]heptan-7-yl)methanone], the Ki at human orexin 1 receptor (hOX1 Ki (nm)) was 82 nM; on human orexin 2 receptor (setting [2]), 245 nM; on rat orexin 1 receptor (rOX1 Ki (nm)), 62 nM.

For `O=C(c1cc(Cl)ccc1-n1nccn1)N1C2CCC1C(COc1ccc(F)cn1)C2` (racemic) [Example 120, (±)-(5-chloro-2-(2H-1,2,3-triazol-2-yl)phenyl)(2-(((5-fluoropyridin-2-yl)oxy)methyl)-7-azabicyclo[2.2.1]heptan-7-yl)methanone], the values for the Ki on human orexin 1 receptor (setting [1]), at human orexin 2 receptor (setting [2]) and at rat orexin 1 receptor (setting [3]) were 14 nM, 124 nM and 15 nM, respectively.

As to `Cc1ccc(C(=O)N2C3CCC2C(COc2ccc(F)cn2)C3)c(-n2nccn2)c1` (racemic) [Example 121, (±)-(2-(((5-fluoropyridin-2-yl)oxy)methyl)-7-azabicyclo[2.2.1]heptan-7-yl)(4-methyl-2-(2H-1,2,3-triazol-2-yl)phenyl)methanone], the Ki turned out to be 68 nM on human orexin 1 receptor (setting [1]), 340 nM at human orexin 2 receptor (setting [2]) and 78 nM on rat orexin 1 receptor (setting [3]).

With `Cc1ccc(C(=O)N2C3CCC2C(COc2ccc(F)cn2)C3)c(-c2ncccn2)c1` (racemic) [Example 122, (±)-(2-(((5-fluoropyridin-2-yl)oxy)methyl)-7-azabicyclo[2.2.1]heptan-7-yl)(4-methyl-2-(pyrimidin-2-yl)phenyl)methanone], the results for the Ki on human orexin 1 receptor (setting [1]), at human orexin 2 receptor (setting [2]) and on rat orexin 1 receptor (setting [3]) were 154 nM, 1000 nM and 118 nM, respectively.

As for `O=C(c1cccc(F)c1-c1ncccn1)N1C2CCC1C(COc1ccc(F)cn1)C2` (racemic) [Example 124, (±)-(3-fluoro-2-(pyrimidin-2-yl)phenyl)(−2-(((5-fluoropyridin-2-yl)oxy)methyl)-7-azabicyclo[2.2.1]heptan-7-yl)methanone], the figures for the Ki at human orexin 1 receptor (hOX1 Ki (nm)), on human orexin 2 receptor (setting [2]) and on rat orexin 1 receptor (rOX1 Ki (nm)) were 52 nM, 355 nM and 83 nM, respectively.
